Laboratory results from ChEMBL document CHEMBL6096661, “Synthesis, biological evaluation and mechanism study of a novel indole-pyridine chalcone derivative as antiproliferative agent against tumor cells through dual targeting tubulin and HK2” (Eur J Med Chem, 2025).
Activity calls are given as the source filed them. No cut-off for these calls is given here.

What was measured:
SW480 = assay: Antiproliferative activity against human SW480 cells assessed as inhibition of cell growth incubated for 48 hrs by CCK-8 assay; assay type: functional, cell-based; conditions: SW480, 48 h
HCT-116 [1] = assay: Antiproliferative activity against human HCT-116 cells assessed as inhibition of cell growth incubated for 48 hrs by CCK-8 assay; assay type: functional, cell-based; conditions: HCT-116, 48 h
HT-1080 = assay: Antiproliferative activity against human HT-1080 cells assessed as inhibition of cell growth incubated for 48 hrs by CCK-8 assay; assay type: functional, cell-based; conditions: HT-1080, 48 h
ASPC1 = assay: Antiproliferative activity against human ASPC1 cells assessed as inhibition of cell growth incubated for 48 hrs by CCK-8 assay; assay type: functional, cell-based; conditions: ASPC1, 48 h
SW1990 = assay: Antiproliferative activity against human SW1990 cells assessed as inhibition of cell growth incubated for 48 hrs by CCK-8 assay; assay type: functional, cell-based; conditions: SW1990, 48 h
[2] = Cytotoxicity against green monkey Vero cells assessed as inhibition of cell growth incubated for 48 hrs by CCK-8 assay; assay type: toxicity, cell-based; conditions: African green monkey (Chlorocebus sabaeus)
MDA-MB-231 [3] = assay: Induction of morphological changes in human MDA-MB-231 assessed as cell contraction at 0.5 to 2 uM incubated for 48 hrs by microscopic analysis; assay type: functional, cell-based; conditions: dose 0.5-2 µM
MDA-MB-231 [4] = assay: Antiproliferative activity against human MDA-MB-231 cells assessed as inhibition of cell proliferation incubated for 4 days by CCK-8 assay; assay type: functional, cell-based; conditions: MDA-MB-231, 96 h
HCT-116 [5] = assay: Antiproliferative activity against human HCT-116 cells assessed as inhibition of cell proliferation incubated for 1 day by CCK-8 assay; assay type: functional, cell-based; conditions: HCT-116, 24 h
HCT-116 [6] = assay: Antiproliferative activity against human HCT-116 cells assessed as inhibition of cell proliferation incubated for 3 days by CCK-8 assay; assay type: functional, cell-based; conditions: HCT-116, 72 h
LoVo = assay: Antiproliferative activity against human LoVo cells assessed as inhibition of cell proliferation incubated for 4 days by CCK-8 assay; assay type: functional, cell-based; conditions: 96 h
Tubulin (Homo sapiens) [7] = target: T1, Tubulin (Homo sapiens) (UniProt P68371+Q9H4B7+P0DPH7+P68366+Q13509+Q71U36+P04350+Q3ZCM7+P07437+P68363+Q9BQE3+Q6PEY2+Q13885+Q9BVA1+Q9BUF5); assay: Disruption of microtubule network in human MDA-MB-231 cells assessed as reduced microtubule network at 1 to 2 uM incubated for 24 hrs by DAPI staining based fluorescence microscopic analysis; assay type: cell-based; conditions: dose 1-2 µM
Tubulin (Homo sapiens) [8] = target: T1, Tubulin (Homo sapiens); assay: Disruption of microtubule network in human MDA-MB-231 cells assessed as atrophy fiber structure at 1 to 2 uM incubated for 24 hrs by DAPI staining based fluorescence microscopic analysis; assay type: cell-based; conditions: dose 1-2 µM
Tubulin (Homo sapiens) [9] = target: T1, Tubulin (Homo sapiens); assay: Disruption of microtubule network in human MDA-MB-231 cells assessed as punctate fiber structure at 1 to 2 uM incubated for 24 hrs by DAPI staining based fluorescence microscopic analysis; assay type: cell-based; conditions: dose 1-2 µM
MDA-MB-231 [10] = assay: Induction of cell cycle arrest in human MDA-MB-231 cells assessed as increased proportion of cells at S phase at 0.5 to 2 uM by flow cytometric analysis; assay type: functional, cell-based; conditions: dose 0.5-2 µM
MDA-MB-231 [11] = assay: Induction of cell cycle arrest in human MDA-MB-231 cells assessed as decreased proportion of cells at G1 phase at 0.5 to 2 uM by flow cytometric analysis; assay type: functional, cell-based; conditions: dose 0.5-2 µM
MDA-MB-231 [12] = assay: Induction of apoptosis in human MDA-MB-231 cells assessed as upregulation of Bax level by Western blotting analysis; assay type: functional, cell-based; conditions: dose 0.5-2 µM
MDA-MB-231 [13] = assay: Induction of apoptosis in human MDA-MB-231 cells assessed as decrease in HIF-1a level by Western blotting analysis; assay type: functional, cell-based; conditions: dose 0.5-2 µM
MDA-MB-231 [14] = assay: Induction of apoptosis in human MDA-MB-231 cells assessed as decrease in Cyclin A level by Western blotting analysis; assay type: functional, cell-based; conditions: dose 0.5-2 µM
Hexokinase-2 = target: T2, Hexokinase-2 (Homo sapiens, UniProt P52789); assay: Inhibition of human HK2 transfected in Escherichia coli BL21 (DE) incubated for 10 mins
T2 sequence (P52789 whole entry): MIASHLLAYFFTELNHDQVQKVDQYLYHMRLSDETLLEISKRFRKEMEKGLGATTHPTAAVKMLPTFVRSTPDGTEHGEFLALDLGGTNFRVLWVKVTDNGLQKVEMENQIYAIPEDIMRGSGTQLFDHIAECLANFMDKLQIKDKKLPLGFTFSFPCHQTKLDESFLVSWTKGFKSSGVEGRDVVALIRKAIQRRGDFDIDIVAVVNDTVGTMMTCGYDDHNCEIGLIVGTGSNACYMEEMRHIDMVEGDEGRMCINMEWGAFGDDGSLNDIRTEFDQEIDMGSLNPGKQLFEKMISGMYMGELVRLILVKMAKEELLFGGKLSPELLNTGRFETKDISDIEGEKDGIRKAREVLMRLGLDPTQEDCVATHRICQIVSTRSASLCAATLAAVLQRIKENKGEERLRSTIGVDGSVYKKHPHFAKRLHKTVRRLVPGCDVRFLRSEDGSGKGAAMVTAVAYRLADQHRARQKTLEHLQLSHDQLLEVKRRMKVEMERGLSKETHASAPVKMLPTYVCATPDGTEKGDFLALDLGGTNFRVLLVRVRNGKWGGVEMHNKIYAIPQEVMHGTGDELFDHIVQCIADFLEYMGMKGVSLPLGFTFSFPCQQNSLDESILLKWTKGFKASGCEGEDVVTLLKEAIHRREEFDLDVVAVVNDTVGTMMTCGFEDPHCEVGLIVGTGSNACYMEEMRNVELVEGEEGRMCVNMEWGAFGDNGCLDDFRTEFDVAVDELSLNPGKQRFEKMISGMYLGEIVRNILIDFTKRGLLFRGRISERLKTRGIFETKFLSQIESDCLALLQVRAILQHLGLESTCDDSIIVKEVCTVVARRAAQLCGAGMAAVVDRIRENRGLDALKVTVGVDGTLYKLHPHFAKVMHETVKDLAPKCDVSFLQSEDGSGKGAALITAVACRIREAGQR

[15] = target: T3, Hexokinase-2 (Homo sapiens) (UniProt P52789); assay: Mixed inhibition of human HK2 transfected in Escherichia coli BL21 (DE) assessed as increase in Km with decrease in Vmax at 0.25 to 4 uM using glucose as substrate by Lineweaver-Burk plot analysis; conditions: dose 0.25-4 µM
T3 sequence (whole entry): T2 sequence (P52789 whole entry)

[16] = target: T3, Hexokinase-2 (Homo sapiens); assay: Binding affinity to human HK2 transfected in Escherichia coli BL21 (DE) assessed as HK2 stabilization at 4 uM at 37 to 55 degreeC incubated for 10 to 30 mins by CETSA; conditions: time 10-30 min
Mitochondrial membrane = assay: […] in human MDA-MB-231 cells at 2.0 uM by JC-1 fluorescent probe based flow cytometric analysis (reference value: 2.56 %)
MDA-MB-231 [17] = assay: Induction of ROS generation in human MDA-MB-231 cells assessed as increase in green fluorescence at 2 uM incubated for 24 hrs by DCFH-DA staining based flow cytometric analysis (reference value: 62.3 %); assay type: functional
MDA-MB-231 [18] = assay: Induction of ROS generation in human MDA-MB-231 cells assessed as increase in green fluorescence incubated for 24 hrs by DCFH-DA staining based flow cytometric analysis relative to control; assay type: functional, cell-based; conditions: dose 0.5-2 µM

Molecule O=C(/C=C/c1cn(S(=O)(=O)c2ccc([N+](=O)[O-])cc2)c2ccc(N3CCOCC3)cc12)c1cccnc1 has an IC50 (SW480) of 687 nM, an IC50 (HCT-116 [1]) of 512 nM and an IC50 (HT-1080) of 872 nM. For the same molecule, the IC50 (ASPC1) was 1110 nM, the IC50 (SW1990) was 927 nM and the IC50 at 48 h [2] was 2320 nM. The Activity (MDA-MB-231 [3]) was “Active”, the IC50 (MDA-MB-231 [4]) was 938 nM and the IC50 (HCT-116 [5]) was 1930 nM. The IC50 (HCT-116 [6]) was 393 nM, the IC50 (LoVo) was 629 nM and the Activity (Tubulin (Homo sapiens) [7]) was “Active”. For the same molecule, the Activity (Tubulin (Homo sapiens) [8]) was “Active”, the Activity (Tubulin (Homo sapiens) [9]) was “Active” and the Activity (MDA-MB-231 [10]) was “Active”. For the same molecule, the Activity (MDA-MB-231 [11]) was “Active”, the Activity (MDA-MB-231 [12]) was “Dose-dependent-effect” and the Activity (MDA-MB-231 [13]) was “Dose-dependent-effect”. For the same molecule, the Activity (MDA-MB-231 [14]) was “Dose-dependent-effect”, the IC50 (Hexokinase-2) was 1560 nM and the inhibition [15] was “Active”. The Activity [16] was “Active”, the Activity (Mitochondrial membrane) was 32.3% and the Activity (MDA-MB-231 [17]) was 92.8%. For the same molecule, the Activity (MDA-MB-231 [18]) was “Dose-dependent-effect”.
